Data as given in ChEMBL document CHEMBL4152332, “Discovery and synthesis of novel magnolol derivatives with potent anticancer activity in non-small cell lung cancer” (Eur J Med Chem, 2018).

Assays:
Mus musculus [1] = assay: Toxicity in Balb/c mouse xenografted with human NCI-H1975 cells assessed as change in body weight at 100 mg/kg, po qd treated for 18 days and measured every 2 days after compound dosing ( Rvb = 2.89%); type: organism-based; details: in vivo
NCI-H1975 [2] = assay: Induction of apoptosis in human NCI-H1975 cells assessed as early apoptotic cells at 40 uM after 48 hrs by annexin V/FITC-propidium iodide staining-based flow cytometric method ( Rvb = 6.09%); type: functional
[3] = Apparent aqueous solubility of the compound by HPLC analysis; type: physicochemical; details: aqueous solution
NCI-H1975 [4] = assay: Antiproliferative activity against human NCI-H1975 cells after 72 hrs by MTT assay; type: functional, cell-based; details: NCI-H1975, 72 h
NCI-H1975 [5] = assay: Antitumor activity against human NCI-H1975 cells xenografted in Balb/c mouse assessed as change in tumor mass at 100 mg/kg, po qd treated for 18 days and measured every 2 days after compound dosing relative to control; type: functional
Mus musculus [6] = assay: Toxicity in Balb/c mouse implanted with mouse C26 cells assessed as mouse death at 100 mg/kg, po qd treated for 10 days; type: organism-based; details: in vivo, 240 h
NCI-H1975 [7] = assay: Induction of apoptosis in human NCI-H1975 cells assessed as viable cells at 40 uM after 48 hrs by annexin V/FITC-propidium iodide staining-based flow cytometric method ( Rvb = 82.5%); type: functional; details: NCI-H1975, 48 h, read-out: Activity
NCI-H1975 [8] = assay: Cell cycle arrest in human NCI-H1975 cells assessed as accumulation at S phase at 40 uM after 24 hrs by propidium iodide staining-based flow cytometric analysis (reference value: 22.93%); type: functional
NCI-H1650 = assay: Antiproliferative activity against human NCI-H1650 cells after 72 hrs by MTT assay; type: functional, cell-based; details: NCI-H1650, 72 h
[9] = Antiproliferative activity against human SPC-A1 cells after 72 hrs by MTT assay; type: functional, cell-based; details: SPCA1, 72 h
NCI-H1975 [10] = assay: Cell cycle arrest in human NCI-H1975 cells assessed as accumulation at G0/G1 phase at 40 uM after 24 hrs by propidium iodide staining-based flow cytometric analysis (reference value: 56.11%); type: functional
NCI-H441 = assay: Antiproliferative activity against human H441 cells after 72 hrs by MTT assay; type: functional, cell-based; details: NCI-H441, 72 h
NCI-H460 = assay: Antiproliferative activity against human H460 cells after 72 hrs by MTT assay; type: functional, cell-based; details: NCI-H460, 72 h
NCI-H1975 [11] = assay: Antitumor activity against human NCI-H1975 cells xenografted in Balb/c mouse assessed as change in tumor mass at 20 mg/kg, iv treated every 2 days for 9 days and measured every 2 days after compound dosing relative to control; type: functional
Mus musculus [12] = assay: Toxicity in Balb/c mouse xenografted with human NCI-H1975 cells assessed as mouse death at 20 mg/kg, iv treated every 2 days for 9 days and measured every 2 days after compound dosing; type: organism-based; details: in vivo
Mus musculus [13] = assay: Toxicity in Balb/c mouse xenografted with human NCI-H1975 cells assessed as change in body weight at 20 mg/kg, iv treated every 2 days for 9 days and measured every 2 days after compound dosing ( Rvb = 2.89%); type: organism-based; details: in vivo
NCI-H1975 [14] = assay: Induction of apoptosis in human NCI-H1975 cells assessed as late apoptotic cells at 40 uM after 48 hrs by annexin V/FITC-propidium iodide staining-based flow cytometric method ( Rvb = 10.4%); type: functional
NCI-H358 = assay: Antiproliferative activity against human NCI-H358 cells after 72 hrs by MTT assay; type: functional, cell-based; details: NCI-H358, 72 h
Mus musculus [15] = assay: Toxicity in Balb/c mouse xenografted with human NCI-H1975 cells assessed as mouse death at 100 mg/kg, po qd treated for 18 days and measured every 2 days after compound dosing; type: organism-based; details: in vivo
NCI-H1975 [16] = assay: Induction of apoptosis in human NCI-H1975 cells assessed as necrotic cells at 40 uM after 48 hrs by annexin V/FITC-propidium iodide staining-based flow cytometric method ( Rvb = 1.01%); type: functional
HCC827 = assay: Antiproliferative activity against human HCC827 cells after 72 hrs by MTT assay; type: functional, cell-based; details: HCC827, 72 h
NCI-H1975 [17] = assay: Cell cycle arrest in human NCI-H1975 cells assessed as accumulation at G2/M phase at 40 uM after 24 hrs by propidium iodide staining-based flow cytometric analysis (reference value: 20.11%); type: functional
PC-9 = assay: Antiproliferative activity against human PC9 cells after 72 hrs by MTT assay; type: functional, cell-based; details: PC-9, 72 h
Mus musculus [18] = assay: Toxicity in Balb/c mouse implanted with mouse C26 cells assessed as change in body weight at 100 mg/kg, po qd treated for 10 days and measured every 2 days (RVB = 16.4%); type: organism-based; details: in vivo
[19] = Antitumor activity against mouse C26 cells implanted in Balb/c mouse assessed as tumor growth inhibition at 100 mg/kg, po qd and measured every 2 days relative to control; type: functional; details: 48 h, read-out: TGI

## C=CCc1ccc(O)c(-c2ccc(O)c(CC=C)c2)c1 [HONOKIOL]
Mus musculus [1]
  Activity: 1.38%
NCI-H1975 [2]
  Activity: 43.8%
[3]
  solubility: < 0.01 mg/mL
NCI-H1975 [4]
  IC50: 30.2 µM
NCI-H1975 [5]
  Activity: 11.8%
Mus musculus [6]
  Activity: Non-Toxic
NCI-H1975 [7]
  viability at 40 µM: 47.4%
NCI-H1975 [8]
  Activity: 6.54%
NCI-H1650
  IC50: 37.4 µM
[9]
  IC50: 39 µM
NCI-H1975 [10]
  Activity: 67.42%
NCI-H441
  IC50: 33.3 µM
NCI-H460
  IC50: 38.5 µM
NCI-H1975 [11]
  Activity: 73%
Mus musculus [12]
  Activity: Non-Toxic
Mus musculus [13]
  Activity: 6.1%
NCI-H1975 [14]
  Activity: 7.97%
NCI-H358
  IC50: 31.6 µM
Mus musculus [15]
  Activity: Non-Toxic
NCI-H1975 [16]
  Activity: 0.87%
HCC827
  IC50: 33.9 µM
NCI-H1975 [17]
  Activity: 18.55%
PC-9
  IC50: 36.7 µM
Mus musculus [18]
  Activity: 6.92%
[19]
  inhibition in vivo at 100 mg/kg: 16.7%
